Active and inactive are the calls of the source.
What was measured:
Orexin receptor type 2 [1] = target: T1, Orexin receptor type 2 (Homo sapiens, UniProt O43614); experiment: Counterscreen assay for antagonists of the orexin 1 receptor (OX1R; HCRTR1): Homogeneous Time Resolved Fluorescence (HTRF)-based cell-based dose response assay for antagonists of the orexin 2 receptor (OX2R; HCRTR2), run by assay provider.; type: functional
T1 sequence (O43614 whole entry): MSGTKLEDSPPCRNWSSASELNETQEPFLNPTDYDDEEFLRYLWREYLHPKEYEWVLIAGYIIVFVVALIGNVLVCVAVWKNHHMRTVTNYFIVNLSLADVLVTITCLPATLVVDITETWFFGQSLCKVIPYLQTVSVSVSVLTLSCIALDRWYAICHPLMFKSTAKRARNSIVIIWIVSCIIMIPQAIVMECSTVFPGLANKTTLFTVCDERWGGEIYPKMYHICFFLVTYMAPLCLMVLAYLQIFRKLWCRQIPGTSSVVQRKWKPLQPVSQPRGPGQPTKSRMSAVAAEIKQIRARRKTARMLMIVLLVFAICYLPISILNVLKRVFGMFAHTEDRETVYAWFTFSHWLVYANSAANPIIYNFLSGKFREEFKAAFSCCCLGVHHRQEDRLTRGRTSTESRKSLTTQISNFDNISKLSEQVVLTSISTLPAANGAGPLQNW

[2] = Luminescence Cell-Based Dose Confirmation HTS to Identify Activators of 5'UTR Stem-Loop Driven Alpha-Synuclein mRNA Translation in H4 Neuroglioblastoma Cells. [Related pubchem assays: 1829 (Project Summary), 1814 (Primary HTS)]; type: functional
[3] = target: T2, Orexin/Hypocretin receptor type 1 (Homo sapiens, UniProt O43613); experiment: Homogeneous Time Resolved Fluorescence (HTRF)-based cell-based high throughput dose response assay for antagonists of the orexin 1 receptor (OX1R; HCRTR1). [Related pubchem assays (depositor defined):AID434989, AID435008, AID463079, AID485270, AID492963, AID492964, AID492965, AID493232, AID504717, AID504718]; type: functional
T2 sequence (O43613 whole entry): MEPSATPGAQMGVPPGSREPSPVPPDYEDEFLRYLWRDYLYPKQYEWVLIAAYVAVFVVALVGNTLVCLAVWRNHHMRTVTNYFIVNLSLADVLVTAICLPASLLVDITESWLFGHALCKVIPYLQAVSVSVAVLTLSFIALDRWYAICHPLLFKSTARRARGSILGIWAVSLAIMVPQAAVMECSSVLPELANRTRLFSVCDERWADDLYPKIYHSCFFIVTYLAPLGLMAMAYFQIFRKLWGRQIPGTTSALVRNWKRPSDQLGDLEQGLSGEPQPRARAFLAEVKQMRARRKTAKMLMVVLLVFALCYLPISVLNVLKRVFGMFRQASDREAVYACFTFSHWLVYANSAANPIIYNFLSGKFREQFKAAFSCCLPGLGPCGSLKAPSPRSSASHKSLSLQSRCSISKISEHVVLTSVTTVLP

[4] = (§1) Counterscreen for antagonists of the orexin 1 receptor (OX1R; HCRTR1): Fluorescence-based cell-based high throughput dose response assay to identify antagonists of the parental CHO cell line. [Related pubchem assays (depositor defined):AID434989, AID435008, AID463079, AID485270, AID492963, AID492964, AID492965, AID493232, AID504699, AID504701]; type: functional
H4 = experiment: Luminescence Cell-Based Dose Response HTS to Identify Activators of 5'UTR Stem-Loop Driven Prion Protein mRNA Translation in H4 Neuroglioblastoma Cells. [Related pubchem assays: 1829 (Project Summary), 1814 (Primary HTS)]; type: functional; settings: Homo sapiens
CHO-K1 = experiment: as §1, with “Homogeneous time resolved fluorescence (HTRF)-based” for “Fluorescence-based”, “cell-based” for “cell-based high throughput”, “CHO-K1” for “CHO”; type: functional; settings: Cricetulus griseus;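 further: potency for inhibition of ATP-stimulated IP1 production as antagonists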
Orexin receptor type 2 [5] = target: T1, Orexin receptor type 2; experiment: Counterscreen assay for antagonists of the orexin 1 receptor (OX1R; HCRTR1): Fluorescence-based cell-based dose response assay for antagonists of the orexin 2 receptor (OX2R; HCRTR2), run by assay provider.; type: functional
[6] = target: T2, Orexin/Hypocretin receptor type 1; experiment: Fluorescence-based cell-based high throughput dose response assay for antagonists of the orexin 1 receptor (OX1R; HCRTR1). [Related pubchem assays (depositor defined):AID434989, AID435008, AID463079, AID485270, AID492963, AID492964, AID492965, AID493232, AID504717, AID504718]; type: functional
[7] = Luminescence Cell-Based Dose Response HTS to Identify Activators of Luciferase Translation or Activity in H4 […] Cells. [Related pubchem assays: 1829 (Project Summary), 1814 (Primary HTS)]; type: functional
[8] = target: Ras and Rab interactor 1/Tyrosine-protein kinase ABL1 (Homo sapiens, UniProt P00519+Q13671); type: functional;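 further: biochemical TR-FRET dose-response test measuring inhibition of binding between Rin1 and Abl proteins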
Ras and Rab interactor 1/Tyrosine-protein kinase ABL1, sequence (P00519 whole entry): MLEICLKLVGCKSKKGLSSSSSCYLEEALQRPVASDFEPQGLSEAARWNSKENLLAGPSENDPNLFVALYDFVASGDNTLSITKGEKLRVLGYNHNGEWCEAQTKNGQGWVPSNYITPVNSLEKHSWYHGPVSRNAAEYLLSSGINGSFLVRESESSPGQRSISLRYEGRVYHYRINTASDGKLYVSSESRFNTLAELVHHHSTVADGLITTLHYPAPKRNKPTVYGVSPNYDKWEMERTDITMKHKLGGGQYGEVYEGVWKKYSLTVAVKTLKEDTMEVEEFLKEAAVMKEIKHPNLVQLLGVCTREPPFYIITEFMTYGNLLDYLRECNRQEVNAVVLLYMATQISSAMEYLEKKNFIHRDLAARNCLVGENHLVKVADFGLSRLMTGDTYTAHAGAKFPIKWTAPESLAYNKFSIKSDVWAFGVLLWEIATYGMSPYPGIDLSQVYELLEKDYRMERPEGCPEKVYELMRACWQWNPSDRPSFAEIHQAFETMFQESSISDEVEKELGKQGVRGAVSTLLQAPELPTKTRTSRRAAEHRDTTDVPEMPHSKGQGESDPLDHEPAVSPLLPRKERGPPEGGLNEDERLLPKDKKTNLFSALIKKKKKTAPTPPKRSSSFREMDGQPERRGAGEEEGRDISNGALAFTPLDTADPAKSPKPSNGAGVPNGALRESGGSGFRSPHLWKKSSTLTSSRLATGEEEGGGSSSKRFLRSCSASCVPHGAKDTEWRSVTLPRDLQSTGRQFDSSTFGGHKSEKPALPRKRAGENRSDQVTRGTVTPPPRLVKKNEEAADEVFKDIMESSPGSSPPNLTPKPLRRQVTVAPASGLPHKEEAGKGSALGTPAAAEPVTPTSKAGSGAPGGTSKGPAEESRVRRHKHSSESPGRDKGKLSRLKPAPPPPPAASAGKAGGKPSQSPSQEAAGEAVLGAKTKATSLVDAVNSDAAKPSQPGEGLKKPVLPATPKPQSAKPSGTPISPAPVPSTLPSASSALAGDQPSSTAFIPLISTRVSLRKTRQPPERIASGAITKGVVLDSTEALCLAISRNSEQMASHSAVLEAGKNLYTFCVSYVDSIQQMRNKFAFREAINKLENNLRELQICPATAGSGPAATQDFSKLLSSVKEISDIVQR
Ras and Rab interactor 1/Tyrosine-protein kinase ABL1, sequence (Q13671 whole entry): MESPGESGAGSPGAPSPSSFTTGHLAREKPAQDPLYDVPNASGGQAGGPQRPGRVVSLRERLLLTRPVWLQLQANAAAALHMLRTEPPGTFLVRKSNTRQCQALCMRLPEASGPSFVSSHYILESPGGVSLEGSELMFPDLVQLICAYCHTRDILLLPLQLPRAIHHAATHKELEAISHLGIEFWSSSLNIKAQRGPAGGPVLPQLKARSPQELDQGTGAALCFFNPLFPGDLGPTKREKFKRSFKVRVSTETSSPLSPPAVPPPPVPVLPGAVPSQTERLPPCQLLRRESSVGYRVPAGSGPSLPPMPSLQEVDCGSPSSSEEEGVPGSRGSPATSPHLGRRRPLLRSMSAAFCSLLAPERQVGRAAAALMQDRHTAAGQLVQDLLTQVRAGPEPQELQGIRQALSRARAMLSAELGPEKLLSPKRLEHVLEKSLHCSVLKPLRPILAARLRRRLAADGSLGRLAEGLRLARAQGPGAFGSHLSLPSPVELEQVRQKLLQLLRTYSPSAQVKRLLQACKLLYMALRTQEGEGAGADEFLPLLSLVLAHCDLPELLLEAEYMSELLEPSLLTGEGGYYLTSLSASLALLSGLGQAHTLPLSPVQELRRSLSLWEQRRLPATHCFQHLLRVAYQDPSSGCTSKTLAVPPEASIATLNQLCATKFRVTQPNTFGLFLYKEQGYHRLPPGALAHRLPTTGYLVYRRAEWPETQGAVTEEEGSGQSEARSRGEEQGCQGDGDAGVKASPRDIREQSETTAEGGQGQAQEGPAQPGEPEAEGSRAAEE

Caspase-3 = target: T3, Caspase-3 (Homo sapiens, UniProt P42574); experiment: inhibition of recombinant caspase-3 activity – biochemical, luminescence, set 2, selectivity assay for SENP protease inhibitor project, SAR follow-up (AID 588599); type: functional
T3 sequence (P42574 whole entry): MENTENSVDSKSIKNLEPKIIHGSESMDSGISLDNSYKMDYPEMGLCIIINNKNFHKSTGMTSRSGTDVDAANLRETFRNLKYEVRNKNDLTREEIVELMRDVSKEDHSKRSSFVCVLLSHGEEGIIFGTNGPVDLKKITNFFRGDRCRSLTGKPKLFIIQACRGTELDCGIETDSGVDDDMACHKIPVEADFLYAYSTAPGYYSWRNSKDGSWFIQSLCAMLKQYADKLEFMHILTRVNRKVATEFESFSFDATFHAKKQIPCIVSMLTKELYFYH

[9] = target: T4, Sentrin-specific protease 7 (Homo sapiens, UniProt Q9BQF6); experiment: inhibition of human SENP7 cleavage activity – biochemical, luminescence, set 2, SAR follow-up (AID 588600); type: functional
T4 sequence (Q9BQF6 whole entry): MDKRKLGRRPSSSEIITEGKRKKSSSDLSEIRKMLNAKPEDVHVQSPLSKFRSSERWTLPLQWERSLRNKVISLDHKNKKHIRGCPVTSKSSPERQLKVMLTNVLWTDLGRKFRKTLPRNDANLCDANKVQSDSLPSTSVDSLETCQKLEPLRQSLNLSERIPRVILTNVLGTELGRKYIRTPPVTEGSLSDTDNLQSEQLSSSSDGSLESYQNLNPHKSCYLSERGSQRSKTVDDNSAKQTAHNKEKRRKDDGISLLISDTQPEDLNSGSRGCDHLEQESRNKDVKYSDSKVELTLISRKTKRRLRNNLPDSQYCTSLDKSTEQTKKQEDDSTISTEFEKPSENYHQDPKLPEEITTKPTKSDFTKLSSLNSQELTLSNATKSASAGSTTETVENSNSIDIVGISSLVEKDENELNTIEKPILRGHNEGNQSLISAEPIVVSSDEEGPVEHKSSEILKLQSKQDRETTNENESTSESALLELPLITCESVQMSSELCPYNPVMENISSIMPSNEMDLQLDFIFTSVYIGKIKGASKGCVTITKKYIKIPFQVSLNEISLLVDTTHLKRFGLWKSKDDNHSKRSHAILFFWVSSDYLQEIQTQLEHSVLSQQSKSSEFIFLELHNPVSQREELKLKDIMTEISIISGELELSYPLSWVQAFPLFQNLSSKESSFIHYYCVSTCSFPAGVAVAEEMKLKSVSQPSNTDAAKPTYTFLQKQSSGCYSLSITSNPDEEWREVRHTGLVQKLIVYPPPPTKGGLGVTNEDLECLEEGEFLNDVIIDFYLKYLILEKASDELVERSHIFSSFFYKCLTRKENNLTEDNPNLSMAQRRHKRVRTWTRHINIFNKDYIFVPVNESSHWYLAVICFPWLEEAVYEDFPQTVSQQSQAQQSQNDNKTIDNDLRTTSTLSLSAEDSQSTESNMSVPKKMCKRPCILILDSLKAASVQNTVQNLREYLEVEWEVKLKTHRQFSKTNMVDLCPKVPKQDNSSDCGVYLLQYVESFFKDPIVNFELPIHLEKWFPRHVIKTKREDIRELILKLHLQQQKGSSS

[10] = target: T5, Sentrin-specific protease 6 (Homo sapiens, UniProt Q9GZR1); experiment: inhibition of human SENP6 catalytic domain – biochemical, luminescence, set 2, SAR follow-up (AID 588598); type: functional
T5 sequence (Q9GZR1 whole entry): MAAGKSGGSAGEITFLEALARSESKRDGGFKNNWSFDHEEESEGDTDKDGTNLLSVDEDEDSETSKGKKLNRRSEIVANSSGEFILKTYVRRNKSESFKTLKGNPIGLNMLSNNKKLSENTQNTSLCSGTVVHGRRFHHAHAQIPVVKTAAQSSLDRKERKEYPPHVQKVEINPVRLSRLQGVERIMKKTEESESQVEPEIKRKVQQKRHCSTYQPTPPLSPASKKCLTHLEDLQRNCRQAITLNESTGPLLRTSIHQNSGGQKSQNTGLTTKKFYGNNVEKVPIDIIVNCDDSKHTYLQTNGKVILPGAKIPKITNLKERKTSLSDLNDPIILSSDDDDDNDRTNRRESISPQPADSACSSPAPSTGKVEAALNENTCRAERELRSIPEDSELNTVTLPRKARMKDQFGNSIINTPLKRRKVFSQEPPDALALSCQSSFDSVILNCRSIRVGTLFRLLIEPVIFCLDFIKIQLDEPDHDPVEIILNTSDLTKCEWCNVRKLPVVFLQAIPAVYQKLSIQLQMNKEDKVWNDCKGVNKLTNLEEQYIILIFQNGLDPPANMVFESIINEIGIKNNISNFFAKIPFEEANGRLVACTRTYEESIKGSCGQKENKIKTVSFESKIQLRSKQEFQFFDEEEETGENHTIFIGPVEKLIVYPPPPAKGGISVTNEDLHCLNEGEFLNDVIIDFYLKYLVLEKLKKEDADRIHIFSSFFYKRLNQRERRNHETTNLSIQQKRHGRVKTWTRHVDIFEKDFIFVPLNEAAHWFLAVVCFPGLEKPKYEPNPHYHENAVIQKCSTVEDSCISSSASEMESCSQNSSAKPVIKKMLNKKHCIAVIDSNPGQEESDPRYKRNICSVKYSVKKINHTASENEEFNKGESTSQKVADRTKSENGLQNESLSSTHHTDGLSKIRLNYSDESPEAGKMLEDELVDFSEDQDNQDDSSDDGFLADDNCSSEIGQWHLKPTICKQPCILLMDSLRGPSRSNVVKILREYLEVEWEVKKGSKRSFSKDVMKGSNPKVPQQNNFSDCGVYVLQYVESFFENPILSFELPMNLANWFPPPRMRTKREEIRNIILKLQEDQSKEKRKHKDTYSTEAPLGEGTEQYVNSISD

[11] = target: T6, Sentrin-specific protease 8 (Homo sapiens, UniProt Q96LD8); experiment: inhibition of sentrin protease 8 – biochemical, luminescence, set 2, SAR follow-up (AID 588601); type: functional
T6 sequence (Q96LD8 whole entry): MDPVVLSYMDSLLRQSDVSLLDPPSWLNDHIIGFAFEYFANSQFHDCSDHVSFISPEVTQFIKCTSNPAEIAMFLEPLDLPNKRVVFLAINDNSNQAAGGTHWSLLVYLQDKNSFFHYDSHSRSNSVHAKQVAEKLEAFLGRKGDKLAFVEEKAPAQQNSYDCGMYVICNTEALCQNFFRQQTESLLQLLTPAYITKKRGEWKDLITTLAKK

Melanocortin receptor 4 = Melanocortin receptor 4 (Homo sapiens, UniProt P32245); type: functional, cell-based;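 further: Cell-based assay with luminescence read-out, confirmatory dose-response testing for agonist activity of biased ligands at MC4R; human U2OS cells with tagged receptor and beta-arrestin; potency of agonists that increase receptor coupling to beta-arrestin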
Melanocortin receptor 4, sequence (P32245 whole entry): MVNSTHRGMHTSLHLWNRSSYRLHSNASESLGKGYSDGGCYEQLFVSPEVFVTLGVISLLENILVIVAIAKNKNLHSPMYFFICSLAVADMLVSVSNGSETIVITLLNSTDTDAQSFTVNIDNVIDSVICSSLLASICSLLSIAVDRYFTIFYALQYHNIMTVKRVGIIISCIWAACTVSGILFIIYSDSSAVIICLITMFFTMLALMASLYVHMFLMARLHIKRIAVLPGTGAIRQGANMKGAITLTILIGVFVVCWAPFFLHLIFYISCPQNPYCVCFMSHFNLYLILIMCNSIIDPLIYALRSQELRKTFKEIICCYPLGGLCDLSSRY

[12] = target: Vascular endothelial growth factor receptor 2 (Homo sapiens, UniProt P35968); type: functional
Vascular endothelial growth factor receptor 2, sequence (P35968 whole entry): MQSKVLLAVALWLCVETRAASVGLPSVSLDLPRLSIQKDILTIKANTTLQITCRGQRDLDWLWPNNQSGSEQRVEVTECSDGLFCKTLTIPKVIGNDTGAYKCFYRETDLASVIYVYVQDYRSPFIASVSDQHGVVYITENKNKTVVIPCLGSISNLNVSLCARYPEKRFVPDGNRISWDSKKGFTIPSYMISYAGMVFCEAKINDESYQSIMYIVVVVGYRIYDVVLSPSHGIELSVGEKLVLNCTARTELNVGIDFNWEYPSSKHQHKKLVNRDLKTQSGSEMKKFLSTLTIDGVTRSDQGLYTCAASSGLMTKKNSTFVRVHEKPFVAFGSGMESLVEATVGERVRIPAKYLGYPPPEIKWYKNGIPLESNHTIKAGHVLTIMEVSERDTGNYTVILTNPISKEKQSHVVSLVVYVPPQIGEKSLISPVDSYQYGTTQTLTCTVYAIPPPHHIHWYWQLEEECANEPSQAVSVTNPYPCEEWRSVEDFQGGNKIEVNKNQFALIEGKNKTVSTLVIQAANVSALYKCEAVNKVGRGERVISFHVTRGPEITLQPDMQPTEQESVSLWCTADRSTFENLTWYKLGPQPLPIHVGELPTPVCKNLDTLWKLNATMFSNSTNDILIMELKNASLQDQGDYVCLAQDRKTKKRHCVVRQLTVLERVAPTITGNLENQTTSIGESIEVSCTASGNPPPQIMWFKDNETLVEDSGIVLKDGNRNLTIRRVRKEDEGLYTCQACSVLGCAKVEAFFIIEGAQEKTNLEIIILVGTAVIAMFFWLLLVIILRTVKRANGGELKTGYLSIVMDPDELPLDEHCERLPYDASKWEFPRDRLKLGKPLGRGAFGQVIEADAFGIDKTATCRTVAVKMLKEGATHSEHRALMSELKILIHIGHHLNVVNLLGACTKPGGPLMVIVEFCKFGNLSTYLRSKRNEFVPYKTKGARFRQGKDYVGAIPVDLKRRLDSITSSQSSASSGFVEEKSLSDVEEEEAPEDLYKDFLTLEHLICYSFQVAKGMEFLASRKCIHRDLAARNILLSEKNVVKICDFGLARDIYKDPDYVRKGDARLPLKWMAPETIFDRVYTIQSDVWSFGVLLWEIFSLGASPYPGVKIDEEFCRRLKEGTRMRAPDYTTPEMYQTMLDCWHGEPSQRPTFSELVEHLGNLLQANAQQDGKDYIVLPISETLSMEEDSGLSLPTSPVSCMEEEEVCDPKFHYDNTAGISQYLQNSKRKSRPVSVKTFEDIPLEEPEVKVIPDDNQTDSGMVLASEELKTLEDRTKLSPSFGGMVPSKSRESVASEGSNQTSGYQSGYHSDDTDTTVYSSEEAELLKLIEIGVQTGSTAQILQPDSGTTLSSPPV

Aurora kinase B = Aurora kinase B (Homo sapiens, UniProt Q96GD4); type: functional
Aurora kinase B, sequence (Q96GD4 whole entry): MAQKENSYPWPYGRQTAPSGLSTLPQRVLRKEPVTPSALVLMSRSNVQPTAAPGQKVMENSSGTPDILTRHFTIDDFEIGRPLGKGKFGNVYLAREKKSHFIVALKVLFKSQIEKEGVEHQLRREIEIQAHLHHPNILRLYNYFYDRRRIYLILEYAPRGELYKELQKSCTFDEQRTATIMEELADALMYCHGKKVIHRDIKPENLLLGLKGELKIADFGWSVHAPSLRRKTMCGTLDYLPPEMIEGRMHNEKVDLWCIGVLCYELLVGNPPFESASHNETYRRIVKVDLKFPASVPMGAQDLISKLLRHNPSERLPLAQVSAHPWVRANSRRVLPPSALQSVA

Aurora kinase A = Aurora kinase A (Homo sapiens, UniProt O14965); type: functional;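 further: value from the Navigating the Kinome kinase panel profiling, panel entry STK6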
Aurora kinase A, sequence (O14965 whole entry): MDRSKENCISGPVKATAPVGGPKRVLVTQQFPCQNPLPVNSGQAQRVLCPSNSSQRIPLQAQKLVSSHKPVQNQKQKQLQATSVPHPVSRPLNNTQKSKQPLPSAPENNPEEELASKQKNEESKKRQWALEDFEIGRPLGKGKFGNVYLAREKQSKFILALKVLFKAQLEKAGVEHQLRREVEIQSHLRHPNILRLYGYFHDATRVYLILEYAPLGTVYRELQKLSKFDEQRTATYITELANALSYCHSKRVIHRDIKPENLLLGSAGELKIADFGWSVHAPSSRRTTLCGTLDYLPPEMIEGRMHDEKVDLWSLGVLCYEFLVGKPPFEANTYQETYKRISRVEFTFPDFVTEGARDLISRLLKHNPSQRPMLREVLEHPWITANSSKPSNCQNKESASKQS

In the case of `Cc1nc2c(-c3ccc(Cl)cc3)cnn2c2c1CCC2`, the IC50 (Orexin receptor type 2 [1]) is reported as > 50 µM (inactive), the EC50 [2] is reported as > 120 µM (not active) and the IC50 [3] is reported as 4.59 µM (active). For the same molecule, the IC50 [4] was > 49.8 µM (inactive), the EC50 (H4) was 24.5 µM (active) and the IC50 (CHO-K1) was > 66.3 µM (inactive). For the same molecule, the IC50 (Orexin receptor type 2 [5]) was > 88.8 µM (inactive), the IC50 [6] was 15 µM (inactive) and the EC50 [7] was 11.1 µM (active).

With `COC(=O)c1ccc(COC(=O)C2CCN(S(=O)(=O)c3ccc(C)c(C)c3)CC2)o1` the IC50 [8] was 12.4 µM (inactive).

For `CCn1c2ccccc2c2cc(NC(=O)c3cccc(OC)c3)ccc21`, the IC50 (Orexin receptor type 2 [1]) was > 50 µM (inactive), the EC50 [2] was 34.8 µM (active) and the IC50 [3] was 0.2 µM (active). For the same molecule, the IC50 [4] was > 49.8 µM (inactive), the EC50 (H4) was 40.1 µM (active) and the IC50 (CHO-K1) was > 66.2 µM (inactive). The IC50 (Orexin receptor type 2 [5]) was 77.6 µM (inactive), the IC50 [6] was 0.965 µM (active) and the EC50 [7] was 56.6 µM (active).

For `COc1ccc(N2CCN(C(=O)C(=O)c3c(C)[nH]c4ccccc34)CC2)cc1`, the IC50 (Caspase-3) was > 99 µM (inactive), the IC50 [9] was > 99 µM (inactive) and the IC50 [10] was > 99 µM (inactive). The IC50 [11] was > 99 µM (inactive).

In the case of `NC(Cc1ccc(C(F)(F)F)cc1)c1csc(NC(=O)Nc2ccccc2Cl)n1` (stereo not given), the EC50 (Melanocortin receptor 4) is reported as > 89.2 µM (inactive).

For `Cc1ccc(-c2c(C#N)c(N)nc3cc(C)nn23)cc1`, the Ki [12] was 3.98 µM (active), the Ki (Aurora kinase B) was 0.1 µM (active) and the Ki (Aurora kinase A) was 0.501 µM (active).

With `CCCCN1CCN(c2ccc(-c3nc4c(C(N)=O)cccc4[nH]3)cn2)CC1` the Ki [12] was > 5.01 µM (inactive), the Ki (Aurora kinase B) was 0.0794 µM (active) and the Ki (Aurora kinase A) was 1.26 µM (active).

Source: ChEMBL document CHEMBL1201862, “PubChem BioAssay data set” (2004)
